Experiments:
[1] = at typical operating pressures and temperatures; cited from earlier work
[2] = Solubility of APIs in PVPVA (thin layer dried on glass slide, optical microscopy); type: physicochemical; conditions: % by mass in PVPVA; bright-field and cross-polarized optical microscopy
Method: The effect of API loading on PVPVA foams was studied next. To make API-laden polymer foams, a model API was added to the polymer before foaming. Clotrimazole and cholesterol were used in this example as model APIs. PVPVA was loaded with the API at concentrations ranging from 0% by mass to 30% by mass, as described above. The solubility of APIs in PVPVA was first tested by dissolving both the API and the polymer in a solvent, then spreading a thin layer on a glass slide to dry. […] These crystals were visible under bright-field and cross-polarized optical microscopy. […] Solid solutions of clotrimazole were obtained at up to 20% loading.

CC(C)CCC[C@@H](C)[C@H]1CC[C@H]2[C@@H]3CC=C4C[C@@H](O)CC[C@]4(C)[C@H]3CC[C@]12C [cholesterol]
solubility in CO2 [1]: about 2 g/l
API loading in PVPVA at which crystals precipitate [2]: about 30%

— US20130202657A1, “FOAMS OR PARTICLES FOR APPLICATIONS SUCH AS DRUG DELIVERY” (BASF SE, priority 2010, published 2013)
